{"source": "PubChem BioAssay AID1963964", "about": "(Molecular Pharmacology Branch, DTP, NCI, 2024);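 note: spheroids exposed to compounds for seven days before readout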", "tested_on": "997726-040-R-J2-PDC tumor spheroids, viability", "test": "Anticancer human tumor 997726-040-R-J2-PDC patient-derived squamous cell lung carcinoma cell line growth inhibition [PI3K]", "conditions": "spheroids with HUVEC and MSC; for viability, T/C: stronger effect = lower value", "method_in_brief": "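High-throughput combination screen: PI3K inhibitors crossed with targeted small molecules on complex spheroids of tumor cells, HUVEC and MSCs at 37 degrees C, 5% CO2. Top concentration was at or near clinical Cmax (otherwise 10 microM), with half-log decrements.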", "key": {"[1]": {"conditions": "curve of first compound, second compound 0.0316 µM"}, "[2]": {"conditions": "curve of first compound, second compound 0.1 µM"}, "[3]": {"conditions": "curve of first compound, second compound 0.316 µM"}, "[4]": {"conditions": "curve of first compound, second compound 1 µM"}, "[5]": {"conditions": "second compound 0.0316 µM, first compound 0.0316 µM"}, "[6]": {"conditions": "second compound 0.0316 µM, first compound 0.1 µM"}, "[7]": {"conditions": "second compound 0.0316 µM, first compound 0.316 µM"}, "[8]": {"conditions": "second compound 0.0316 µM, first compound 1 µM"}, "[9]": {"conditions": "second compound 0.0316 µM, first compound 3.16 µM"}, "[10]": {"conditions": "second compound 0.0316 µM, first compound 10 µM"}, "[11]": {"conditions": "second compound 0.1 µM, first compound 0.0316 µM"}, "[12]": {"conditions": "second compound 0.1 µM, first compound 0.1 µM"}, "[13]": {"conditions": "second compound 0.1 µM, first compound 0.316 µM"}, "[14]": {"conditions": "second compound 0.1 µM, first compound 1 µM"}, "[15]": {"conditions": "second compound 0.1 µM, first compound 3.16 µM"}, "[16]": {"conditions": "second compound 0.1 µM, first compound 10 µM"}, "[17]": {"conditions": "second compound 0.316 µM, first compound 0.0316 µM"}, "[18]": {"conditions": "second compound 0.316 µM, first compound 0.1 µM"}, "[19]": {"conditions": "second compound 0.316 µM, first compound 0.316 µM"}, "[20]": {"conditions": "second compound 0.316 µM, first compound 1 µM"}, "[21]": {"conditions": "second compound 0.316 µM, first compound 3.16 µM"}, "[22]": {"conditions": "second compound 0.316 µM, first compound 10 µM"}, "[23]": {"conditions": "second compound 1 µM, first compound 0.0316 µM"}, "[24]": {"conditions": "second compound 1 µM, first compound 0.1 µM"}, "[25]": {"conditions": "second compound 1 µM, first compound 0.316 µM"}, "[26]": {"conditions": "second compound 1 µM, first compound 1 µM"}, "[27]": {"conditions": "second compound 1 µM, first compound 3.16 µM"}, "[28]": {"conditions": "second compound 1 µM, first compound 10 µM"}}}
{"smiles": "C#Cc1c(F)ccc2cc(O)cc(-c3ncc4c(N5CC6CCC(C5)N6)nc(OCC56CCCN5CC(F)C6)nc4c3F)c12", "note": "(stereo not given) + Cc1nc(NC(=O)N2CCCC2C(N)=O)sc1-c1ccnc(C(C)(C)C(F)(F)F)c1", "values": [{"measurement": "IC50", "setting": "[1]", "value": "> 10000", "unit": "nM"}, {"measurement": "IC50", "setting": "[2]", "value": "> 10000", "unit": "nM"}, {"measurement": "IC50", "setting": "[3]", "value": 220, "unit": "nM"}, {"measurement": "IC50", "setting": "[4]", "value": "< 31.6", "unit": "nM"}, {"measurement": "IC50", "setting": "curve of first compound, second compound 3.16 µM", "value": "< 31.6", "unit": "nM"}, {"measurement": "IC50", "setting": "curve of first compound, second compound 10 µM", "value": "< 31.6", "unit": "nM"}, {"measurement": "viability, T/C", "setting": "[5]", "value": 89.9, "unit": "%"}, {"measurement": "viability, T/C", "setting": "[6]", "value": 88.9, "unit": "%"}, {"measurement": "viability, T/C", "setting": "[7]", "value": 84, "unit": "%"}, {"measurement": "viability, T/C", "setting": "[8]", "value": 81.3, "unit": "%"}, {"measurement": "viability, T/C", "setting": "[9]", "value": 77.9, "unit": "%"}, {"measurement": "viability, T/C", "setting": "[10]", "value": 75.5, "unit": "%"}, {"measurement": "viability, T/C", "setting": "[11]", "value": 77.4, "unit": "%"}, {"measurement": "viability, T/C", "setting": "[12]", "value": 71.4, "unit": "%"}, {"measurement": "viability, T/C", "setting": "[13]", "value": 74.6, "unit": "%"}, {"measurement": "viability, T/C", "setting": "[14]", "value": 79.8, "unit": "%"}, {"measurement": "viability, T/C", "setting": "[15]", "value": 60.9, "unit": "%"}, {"measurement": "viability, T/C", "setting": "[16]", "value": 55, "unit": "%"}, {"measurement": "viability, T/C", "setting": "[17]", "value": 59.6, "unit": "%"}, {"measurement": "viability, T/C", "setting": "[18]", "value": 51.2, "unit": "%"}, {"measurement": "viability, T/C", "setting": "[19]", "value": 51, "unit": "%"}, {"measurement": "viability, T/C", "setting": "[20]", "value": 44.3, "unit": "%"}, {"measurement": "viability, T/C", "setting": "[21]", "value": 42.9, "unit": "%"}, {"measurement": "viability, T/C", "setting": "[22]", "value": 41.9, "unit": "%"}, {"measurement": "viability, T/C", "setting": "[23]", "value": 41.4, "unit": "%"}, {"measurement": "viability, T/C", "setting": "[24]", "value": 39.5, "unit": "%"}, {"measurement": "viability, T/C", "setting": "[25]", "value": 41.7, "unit": "%"}, {"measurement": "viability, T/C", "setting": "[26]", "value": 40.3, "unit": "%"}, {"measurement": "viability, T/C", "setting": "[27]", "value": 40.3, "unit": "%"}, {"measurement": "viability, T/C", "setting": "[28]", "value": 30, "unit": "%"}, {"measurement": "viability, T/C", "setting": "second compound 3.16 µM, first compound 0.0316 µM", "value": 30.8, "unit": "%"}, {"measurement": "viability, T/C", "setting": "second compound 3.16 µM, first compound 0.1 µM", "value": 27.2, "unit": "%"}, {"measurement": "viability, T/C", "setting": "second compound 3.16 µM, first compound 0.316 µM", "value": 31.2, "unit": "%"}, {"measurement": "viability, T/C", "setting": "second compound 3.16 µM, first compound 1 µM", "value": 28.5, "unit": "%"}, {"measurement": "viability, T/C", "setting": "second compound 3.16 µM, first compound 3.16 µM", "value": 30.5, "unit": "%"}, {"measurement": "viability, T/C", "setting": "second compound 3.16 µM, first compound 10 µM", "value": 21.9, "unit": "%"}, {"measurement": "viability, T/C", "setting": "second compound 10 µM, first compound 0.0316 µM", "value": 15.8, "unit": "%"}, {"measurement": "viability, T/C", "setting": "second compound 10 µM, first compound 0.1 µM", "value": 17.6, "unit": "%"}, {"measurement": "viability, T/C", "setting": "second compound 10 µM, first compound 0.316 µM", "value": 13.4, "unit": "%"}, {"measurement": "viability, T/C", "setting": "second compound 10 µM, first compound 1 µM", "value": 17.6, "unit": "%"}, {"measurement": "viability, T/C", "setting": "second compound 10 µM, first compound 3.16 µM", "value": 14.1, "unit": "%"}, {"measurement": "viability, T/C", "setting": "second compound 10 µM, first compound 10 µM", "value": 15.8, "unit": "%"}]}
{"smiles": "CC1(C)CCC(Nc2ncc(C(F)(F)F)c(-c3c[nH]c4c(P(C)(C)=O)c(C#N)ccc34)n2)CN1", "note": "(stereo not given) + CC(Nc1ccc2c(c1)OCCn1cc(N3C(=O)OCC3C(F)F)nc1-2)C(N)=O", "values": [{"measurement": "IC50", "setting": "curve of first compound, second compound 0.00316 µM", "value": "< 31.6", "unit": "nM"}, {"measurement": "IC50", "setting": "curve of first compound, second compound 0.01 µM", "value": "< 31.6", "unit": "nM"}, {"measurement": "IC50", "setting": "[1]", "value": "< 31.6", "unit": "nM"}, {"measurement": "IC50", "setting": "[2]", "value": "< 31.6", "unit": "nM"}, {"measurement": "IC50", "setting": "[3]", "value": "< 31.6", "unit": "nM"}, {"measurement": "IC50", "setting": "[4]", "value": "< 31.6", "unit": "nM"}, {"measurement": "viability, T/C", "setting": "second compound 0.00316 µM, first compound 0.0316 µM", "value": 28.7, "unit": "%"}, {"measurement": "viability, T/C", "setting": "second compound 0.00316 µM, first compound 0.1 µM", "value": 30, "unit": "%"}, {"measurement": "viability, T/C", "setting": "second compound 0.00316 µM, first compound 0.316 µM", "value": 33.1, "unit": "%"}, {"measurement": "viability, T/C", "setting": "second compound 0.00316 µM, first compound 1 µM", "value": 33.6, "unit": "%"}, {"measurement": "viability, T/C", "setting": "second compound 0.00316 µM, first compound 3.16 µM", "value": 32.4, "unit": "%"}, {"measurement": "viability, T/C", "setting": "second compound 0.00316 µM, first compound 10 µM", "value": 5.79, "unit": "%"}, {"measurement": "viability, T/C", "setting": "second compound 0.01 µM, first compound 0.0316 µM", "value": 32.1, "unit": "%"}, {"measurement": "viability, T/C", "setting": "second compound 0.01 µM, first compound 0.1 µM", "value": 30.8, "unit": "%"}, {"measurement": "viability, T/C", "setting": "second compound 0.01 µM, first compound 0.316 µM", "value": 28.8, "unit": "%"}, {"measurement": "viability, T/C", "setting": "second compound 0.01 µM, first compound 1 µM", "value": 31, "unit": "%"}, {"measurement": "viability, T/C", "setting": "second compound 0.01 µM, first compound 3.16 µM", "value": 28.3, "unit": "%"}, {"measurement": "viability, T/C", "setting": "second compound 0.01 µM, first compound 10 µM", "value": 4.9, "unit": "%"}, {"measurement": "viability, T/C", "setting": "[5]", "value": 25.6, "unit": "%"}, {"measurement": "viability, T/C", "setting": "[6]", "value": 22.9, "unit": "%"}, {"measurement": "viability, T/C", "setting": "[7]", "value": 23.5, "unit": "%"}, {"measurement": "viability, T/C", "setting": "[8]", "value": 26.1, "unit": "%"}, {"measurement": "viability, T/C", "setting": "[9]", "value": 25.2, "unit": "%"}, {"measurement": "viability, T/C", "setting": "[10]", "value": 4.37, "unit": "%"}, {"measurement": "viability, T/C", "setting": "[11]", "value": 14.3, "unit": "%"}, {"measurement": "viability, T/C", "setting": "[12]", "value": 18.4, "unit": "%"}, {"measurement": "viability, T/C", "setting": "[13]", "value": 17.3, "unit": "%"}, {"measurement": "viability, T/C", "setting": "[14]", "value": 21.5, "unit": "%"}, {"measurement": "viability, T/C", "setting": "[15]", "value": 19.6, "unit": "%"}, {"measurement": "viability, T/C", "setting": "[16]", "value": 3.37, "unit": "%"}, {"measurement": "viability, T/C", "setting": "[17]", "value": 14.6, "unit": "%"}, {"measurement": "viability, T/C", "setting": "[18]", "value": 12.9, "unit": "%"}, {"measurement": "viability, T/C", "setting": "[19]", "value": 14.1, "unit": "%"}, {"measurement": "viability, T/C", "setting": "[20]", "value": 13.4, "unit": "%"}, {"measurement": "viability, T/C", "setting": "[21]", "value": 13, "unit": "%"}, {"measurement": "viability, T/C", "setting": "[22]", "value": 1.45, "unit": "%"}, {"measurement": "viability, T/C", "setting": "[23]", "value": 11.4, "unit": "%"}, {"measurement": "viability, T/C", "setting": "[24]", "value": 9.53, "unit": "%"}, {"measurement": "viability, T/C", "setting": "[25]", "value": 10.6, "unit": "%"}, {"measurement": "viability, T/C", "setting": "[26]", "value": 11, "unit": "%"}, {"measurement": "viability, T/C", "setting": "[27]", "value": 12.6, "unit": "%"}, {"measurement": "viability, T/C", "setting": "[28]", "value": 1.25, "unit": "%"}]}
{"smiles": "C[C@@H](NC(=O)c1ncnc(N)c1Cl)c1ncc(C(=O)Nc2cc(C(F)(F)F)c(Cl)cn2)s1", "values": [{"measurement": "viability, T/C", "setting": "compound 0.1 µM", "value": "125% [middle of 4 runs]"}, {"measurement": "viability, T/C", "setting": "compound 0.316 µM", "value": "117% [middle of 4 runs]"}, {"measurement": "viability, T/C", "setting": "compound 1 µM", "value": "110% [middle of 4 runs]"}, {"measurement": "viability, T/C", "setting": "compound 3.16 µM", "value": "105% [middle of 4 runs]"}, {"measurement": "viability, T/C", "setting": "compound 10 µM", "value": "73.3% [middle of 4 runs]"}, {"measurement": "IC50", "setting": "curve of compound", "value": "> 10000", "unit": "nM"}]}
